This is an account of results in patent US6174881A, “Hydroxymethylimidazodiazepines and their esters” (Hoffman-La Roche Inc., priority 1995, dated 2001).

Broadly, the IC50 is the concentration that gives 50% inhibition. A word on the ED50: it is the dose that gives a 50% effect, or the effect in half of the subjects. Lower therefore signals greater potency.

Assay [1] has as its target central benzodiazepine receptors. The assay is described as follows: inhibition of the binding of tritiated flumazenil to the specific benzodiazepine receptors in the cortex of rats. Particulars: 50% inhibition of specific binding of tritiated flumazenil, rat cortex; read-out: Affinity to benzodiazepine receptors IC50. The method, then:
The affinity of compounds of general formula I to the central benzodiazepine receptors was established in vitro according to the methods described in Nature 294, 763-765 (1981) and J. Neurochemistry 37, 714-722 (1981). According to these methods the inhibition of the binding of tritiated flumazenil to the specific benzodiazepine receptors in the cortex of rats by the respective test substances is determined. The IC50 ("50% inhibiting concentration") denotes that concentration of the respective test substance which brings about a 50 percent inhibition of the specific binding of tritiated flumazenil to the specific benzodiazepine receptors in the cortex of rats.

The test system of assay [2] is mice. Kind of assay: rotating rod test in mice (sedative/muscle relaxant properties), i.v. Type of assay: in vivo, mouse. Particulars: for ED50: Mus musculus, iv. The method, then: The sedative/muscle relaxant properties of the compounds of formula II in accordance with the invention can be determined, for example, in the rotating rod test. Mice weighing 19-21 g are used for this test. They have free access to feed and drinking water up to 1 hour prior to the beginning of the test. They are brought into the test laboratory at least 30 minutes prior to the test. In the rotating rod test the animals are placed on a horizontally arranged, smooth metal rod having a diameter of 3 cm., which is rotated at 2 revolutions per minute. Initially, the animals are given the opportunity of familiarizing themselves with the test situation for 30 seconds. Subsequently, those animals which succeed in remaining on the rod for at least 1 minute are selected. The test preparations are then administered intraveneously to these animals in different dosages. At various points in time it is then determined whether the animals are able to remain for a minimum period on the rod (minimum period: 10 seconds, 1 minute from 5 minutes after administration). That dosage at which 50% of the animals are capable of remaining on the rod is determined (ED50).

Where [3] appears, read: 15 s, minimum time 10 sec, 15 sec after administration.
Setting [4] is: 0.5 min, minimum time 10 sec, 30 sec after administration.
Where [5] appears, read: 1 min, minimum time 10 sec, 60 sec after administration.
The mark [6] stands for this setting: 2 min, minimum time 10 sec, 2 min after administration.
Where [7] appears, read: 5 min, minimum time 60 sec, 5 min after administration.
[8] abbreviates: 0.25 h, minimum time 60 sec, 15 min after administration.
The mark [9] stands for this setting: 0.5 h, minimum time 60 sec, 30 min after administration.
[10] abbreviates: 1 h, minimum time 60 sec, 60 min after administration.

A value given as a limit tells only on which side of the number the result lay.

For the molecule “2-Chloro-4-(2-fluorophenyl)-8,9-dihydro-6H-imidazo[1,2-a]thieno[3,2-f][1,4]diazepine-8-methanol”, in assay [1], the IC50 stood at 2.6 nM. Moreover, the “Rotating rod test, ED50” value is 0.5 mg/kg in assay [2] (minimum time 10 sec, 15 sec after administration, 0.25 min); 0,7 mg/kg in assay [2] (minimum time 10 sec, 30 sec after administration, 0.5 min); 0.6 mg/kg in assay [2] (minimum time 10 sec, 60 sec after administration, 1 min); 1.2 mg/kg in assay [2] (minimum time 10 sec, 2 min after administration); 2.3 mg/kg in assay [2] (minimum time 60 sec, 5 min after administration); 5.3 mg/kg in assay [2] (minimum time 60 sec, 15 min after administration). Also, the “Rotating rod test, ED50” value in assay [2] (minimum time 60 sec, 30 min after administration) is reported as at least 10 mg/kg; in assay [2] (minimum time 60 sec, 60 min after administration), over 10 mg/kg.

On to `CC(=O)OCc1cn2c(n1)CN=C(c1ccccc1F)c1cc(Cl)sc1-2` [B], for which the IC50 in assay [1] amounted to 6 nM. For the same molecule, the median effective dose (ED50) in assay [2] (setting [3]) was 0.6 mg/kg; in assay [2] (setting [4]), 0.7 mg/kg; in assay [2] (setting [5]) it was 1.2 mg/kg; in assay [2] (setting [6]), 1 mg/kg; in assay [2] (setting [7]), at least 10 mg/kg; in assay [2] (setting [8]), at least 10 mg/kg. Further, the ED50 in assay [2] (setting [9]) is at least 10 mg/kg; in assay [2] (setting [10]), over 10 mg/kg.

Consider `OCc1cn2c(n1)CN=C(c1ccccc1F)c1cc(Cl)ccc1-2` [C, 8-Chloro-6-(2-fluorophenyl)-4H-imidazo[1,2-a]benzodiazepine-2-methanol], for which the concentration for half-maximal inhibition (IC50) in assay [1] turned out to be 1.7 nM. In addition, the ED50 in assay [2] (setting [3]) is 0.1 mg/kg; in assay [2] (setting [4]), 0.3 mg/kg; in assay [2] (setting [5]), 0.3 mg/kg; in assay [2] (setting [6]), at least 10 mg/kg; in assay [2] (setting [7]) it was 0.8 mg/kg; in assay [2] (setting [8]), 0.4 mg/kg. The values for the 50% effective dose (ED50) in assay [2] (setting [9]) and in assay [2] (setting [10]) were 1.1 mg/kg and at least 10 mg/kg, respectively.

`C=CCNCc1c(CO)nc2n1-c1ccc(Cl)cc1C(c1ccccc1F)=NC2` [D, 1-Allylaminomethyl-8-chloro-6-(2-fluorophenyl)-4H-imidazo[1,2-a][1,4]benzodiazepine-2-methanol]: the 50% inhibitory concentration (IC50) in assay [1] is 5.6 nM. The median effective dose (ED50) turned out to be 2.5 mg/kg in assay [2] (setting [3]); 3 mg/kg in assay [2] (setting [4]); 3.2 mg/kg in assay [2] (setting [5]); 3.2 mg/kg in assay [2] (setting [6]); 2.1 mg/kg in assay [2] (setting [7]); 1.8 mg/kg in assay [2] (setting [8]). The median effective dose (ED50) in assay [2] (setting [9]) is at least 10 mg/kg; in assay [2] (setting [10]), over 10 mg/kg.

With `OCc1cn2c(n1)CN=C(c1ccccc1Cl)c1cc(Cl)ccc1-2` [E, 8-Chloro-6-(2-chlorophenyl)-4H-imidazo[1,2-a][1,4]benzodiazepine-2 methanol], the half-maximal inhibitory concentration (IC50) in assay [1] was determined as 1.2 nM. Further, the ED50 in assay [2] (setting [3]) was at most 0.32 mg/kg; in assay [2] (setting [4]), 0.4 mg/kg; in assay [2] (setting [5]) it was 0.5 mg/kg; in assay [2] (setting [6]), 3.2 mg/kg; in assay [2] (setting [7]), 0.9 mg/kg; in assay [2] (setting [8]) it was 0.5 mg/kg. The 50% effective dose (ED50) in assay [2] (setting [9]) and in assay [2] (setting [10]) was at least 3.2 mg/kg in each case.

With `OCc1cn2c(n1)CN=C(c1ccccc1)c1cc(C(F)(F)F)ccc1-2` [F, 8-Trifluoromethyl-6-phenyl-4H-imidazo[1,2-a][1,4]benzodiazepine-2 methanol], the IC50 in assay [1] is 12 nM. Also, the ED50 was 1 mg/kg in assay [2] (setting [3]); 1.1 mg/kg in assay [2] (setting [4]); 1.1 mg/kg in assay [2] (setting [5]); over 3.2 mg/kg in assay [2] (setting [6]); 1 mg/kg in assay [2] (setting [7]); 0.9 mg/kg in assay [2] (setting [8]). The ED50 in assay [2] (setting [9]) was 1.1 mg/kg; in assay [2] (setting [10]) it was 1.8 mg/kg.

`O=[N+]([O-])c1ccc2c(c1)C(c1ccccc1F)=NCc1nc(CO)cn1-2` [G, 6-(2-Fluorophenyl)-8-nitro-4H-imidazo[1,2-a][1,4]benzodiazepine-2 methanol]: in assay [1], the half-maximal inhibitory concentration (IC50) amounted to 2.3 nM. Further, the ED50 stood at 0.2 mg/kg in assay [2] (setting [3]); 0.2 mg/kg in assay [2] (setting [4]); 0.3 mg/kg in assay [2] (setting [5]); 0.3 mg/kg in assay [2] (setting [6]); 0.1 mg/kg in assay [2] (setting [7]); 0.2 mg/kg in assay [2] (setting [8]). The figures for the median effective dose (ED50) in assay [2] (setting [9]) and in assay [2] (setting [10]) were 0.2 mg/kg and at least 1 mg/kg, respectively.

With `OCc1cn2c(n1)CN=C(c1ccccc1F)c1cc(I)ccc1-2` [H, 6-(2-Fluorophenyl)-8-iodo-4H-imidazo[1,2-a][1,4]benzodiazepine-2 methanol], the IC50 in assay [1] was 2.07 nM. Further, the ED50 in assay [2] (setting [3]) came to 0.1 mg/kg; in assay [2] (setting [4]), 0.06 mg/kg; in assay [2] (setting [5]) it was 0.09 mg/kg; in assay [2] (setting [6]) it was 0.1 mg/kg; in assay [2] (setting [7]), 0.1 mg/kg; in assay [2] (setting [8]) it was 0.1 mg/kg. The results for the 50% effective dose (ED50) in assay [2] (setting [9]) and in assay [2] (setting [10]) were at least 1 mg/kg and over 1 mg/kg, respectively.

Turning to `OCc1cn2c(n1)CN=C(c1ccccn1)c1cc(Br)ccc1-2` [I, 8-Bromo-6-(2-pyridyl)-4H-imidazo[1,2-a][1,4]benzodiazepine-2 methanol], the IC50 in assay [1] was found to be 40 nM. Besides, the ED50 in assay [2] (setting [3]) is 1.5 mg/kg; in assay [2] (setting [4]), 2 mg/kg; in assay [2] (setting [5]), 3 mg/kg; in assay [2] (setting [6]), over 10 mg/kg; in assay [2] (setting [7]), 1.4 mg/kg; in assay [2] (setting [8]), 1.8 mg/kg. Moreover, the median effective dose (ED50) was 3 mg/kg in assay [2] (setting [9]) and at least 10 mg/kg in assay [2] (setting [10]).
